Patent US20120230951A1 (priority 2011, published 2012)

Test system: GT-1a pRLuc H771b 75 S/I subgenomic replicon cell line
Assay: HCV GT-1a replicon luciferase reporter assay
Type: cell-based
Conditions: Hepatitis C virus, GT1A, 72 h, read-out: GT-1a (IC50) (nM)
Text: Determination of compounds HCV GT1b inhibitory replicon activity using the replicon luciferase reporter assay
The 2209-23 cell line was developed at Roche by stable transfection of the hepatoma cell line Huh-7 with a GT-1b Con1 subgenomic bicistronic replicon as previously described. Subgenomic replicon cell line was established in cured Huh7 cells, obtained from R. Bartenschlager (J. Virol. 2003 March; 77 (5):3007-19) The GT-1a H77 subgenomic replicon vector pRLuc H771b 75 S/I, was created by replacing the non structural region of the GT-1b Con1 subgenomic replicon by the one of the H77 strain, except for the first 75 amino acids of the NS3 protein that are from GT-1b Con1 strain. (J. Virol. 2001 77:5352-59) The GT-1a pRLuc H771b 75 S/I subgenomic replicon cell line was established in cured Huh7 cells, obtained from R. Bartenschlager. (J. Virol. 2003 March; 77 (5):3007-19)
All the subgenomic replicon cell lines were cultured in Dulbecco's Modified Eagle Medium (DMEM-Glutamax™-I; Invitrogen Cat #10569-010). The medium was supplemented with 10% Fetal Bovine Serum (Invitrogen Cat #10082-147), 1% penicillin/streptomycin (Mediatech Cat #30-002-CI) and 500 μg/ml of G418 (Mediatech Cat #30-234-CI). Cells were maintained at 37° C. in a humidified 5% CO2 atmosphere.
2209-23 cells were plated at a cell density of 5000 cells per well in 96 well plates (Becton Dickinson, Cat #35 3296). Cells were plated in 90 μl of Dulbecco's Modified Eagle Medium (DMEM-Glutamax™-I), (Invitrogen Cat #10569-010) medium was supplemented with 5% Fetal Bovine Serum (Invitrogen Cat #10082-147), 1% penicillin/streptomycin (Mediatech Cat #30-002-CI). The pRluc H771b 75 S/I cells were plated in 96-well plate at 3000 cells/well in DMEM-Glutamax™-I containing 5% FBS and 1% penicillin/streptomycin in 90 μl final volume. Cells were allowed to equilibrate for 24 hours at 37° C. and 5% CO2 at which time compounds were added. Compounds (or medium as a control) were added 24 hours post-plating in 3 fold dilutions at a final DMSO concentration of 1% in 10 ul volume. Renilla luciferase reporter signal was read 72 hours after addition of compounds using the Renilla Luciferase Assay System (Promega, cat #E2820). EC50 values were defined as the compound concentration at which a 50% reduction in the levels of renilla luciferase reporter was observed as compared to control samples in the absence of compound and was determined by non-linear fitting of compound dose-response data. The EC50 was approximated if maximum percentage inhibition was less than 90% and more than 70%.

Row | Structure (SMILES) | IC50 [nM]
1 | COC(=O)NC(C(=O)N1CCCC1c1ncc(-c2ccc(-c3ccc(-c4cnc([C@@H]5Cc6cc(C#N)cc7c6N5C(=O)[C@@H](NC(=O)OC)CC7)[nH]4)cc3)cc2)[nH]1)C(C)C (stereo in doubt) [Compound I-26, {(2S,5S)-9-Cyano-2-[5-(4′-{2-[(R)-1-((R)-2-methoxycarbonylamino-3-methyl-butyryl)-pyrrolidin-2-yl]-3H-imidazol-4-yl}-biphenyl-4-yl)-1H-imidazol-2-yl]-4-oxo-1,2,4,5,6,7-hexahydro-azepino[3,2,1-hi]indol-5-yl}-carbamic acid methyl ester] | 7.71
2 | COC(=O)N[C@H]1CCc2cccc3c2N(C1=O)[C@H](c1ncc(-c2ccc(-c4ccc(-c5cnc([C@@H]6CCCN6C(=O)[C@@H](NC(=O)OC)[C@@H](C)O)[nH]5)cc4)cc2)[nH]1)C3 (stereo in doubt) [Compound I-50, {(2S,5S)-2-[5-(4-{2-[(S)-1-((S)-3-Hydroxy-2-methoxycarbonylamino-butyl)-pyrolidin-2-yl]-3H-imidazol-4-yl}-biphenyl-4-yl)-1H-imidazol-2-yl]-4-oxo-1,2,4,5,6,7-hexahydro-azepino[3,2,1-hi]indol-5-yl}-carbamic acid methyl ester] | 6.62
3 | COC(=O)NC(C(=O)N1CCOC[C@H]1c1ncc(-c2ccc(-c3ccc(-c4cnc([C@@H]5Cc6cccc7c6N5C(=O)[C@@H](NC(=O)OC)CC7)[nH]4)cc3)cc2)[nH]1)c1ccccc1 (stereo in doubt) [Compound I-63, {(2S,5S)-2-[5-(4′-{2-[(R)-4-((S)-2-Methoxycarbonylamino-2-phenyl-acetyl)-morpholin-3-yl]-3H-imidazol-4-yl}-biphenyl-4-yl)-1H-imidazol-2-yl]-4-oxo-1,2,4,5,6,7-hexahydro-azepino[3,2,1-hi]indol-5-yl}-carbamic acid methyl ester] | 7.3
4 | COC(=O)N[C@H]1CCc2cccc3c2N(C1=O)[C@H](c1ncc(-c2ccc(-c4ccc(-c5cnc([C@@H]6C[C@H](F)CN6C(=O)[C@@H](NC(=O)OC)C(C)C)[nH]5)cc4)cc2)[nH]1)C3 [Compound I-1, {(2S,5S)-2-[5-(4′-{2-[(2S,4S)-4-Fluoro-1-((S)-2-methoxycarbonylamino-3-methyl-butyryl)-pyrrolidin-2-yl]-3H-imidazol-4-yl}biphenyl-4-yl)-1H-imidazol-2-yl]-4-oxo-1,2,4,5,6,7-hexahydro-azepino[3,2,1-hi]indol-5-yl}-carbamic acid methyl ester] | 6.33
5 | COC(=O)N[C@H]1CCc2cccc3c2N(C1=O)[C@H](c1ncc(-c2ccc(-c4ccc(-c5cnc([C@@H]6C[C@@H](F)CN6C(=O)[C@@H](NC(=O)OC)C(C)C)[nH]5)cc4)cc2)[nH]1)C3 [Compound I-2, {(2S,5S)-2-[5-(4′-{2-[(2S,4R)-4-Fluoro-1-((S)-2-methoxycarbonylamino-3-methyl-butyryl)-pyrrolidin-2-yl]-3H-imidazol-4-yl}-biphenyl-4-yl)-1H-imidazol-2-yl]-4-oxo-1,2,4,5,6,7-hexahydro-azepino[3,2,1-hi]indol-5-yl}-carbamic acid methyl ester] | 18.5
6 | COC(=O)N[C@H]1CCc2cccc3c2N(C1=O)[C@H](c1ncc(-c2ccc(-c4ccc5nc([C@@H]6CCCN6C(=O)[C@@H](NC(=O)OC)C(C)C)[nH]c5c4)cc2)[nH]1)C3 [Compound I-3, {(2S,5S)-2-[5-(4-{2-[(S)-1-((S)-2-Methoxycarbonylamino-3-methyl-butyryl)-pyrrolidin-2-yl]-3H-benzoimidazol-5-yl}-phenyl)-1H-imidazol-2-yl]-4-oxo-1,2,4,5,6,7-hexahydro-azepino[3,2,1-hi]indol-5-yl}-carbamic acid methyl ester] | 660
